The text below walks through data of patent US12296030B2, “Conjugates and their use as imaging agents” (priority 2019, dated 2025).

One assay concerns nodal metastases. Put plainly: FDG-PET in patient 3. The class given is in vivo, human. The conditions noted are these: patient 3, 60 min after 256 MBq.
The next assay concerns proliferating cells. The conditions noted are these: cited from earlier work.
Assay [1] relates to quiescent endothelial cells. To be noted: in vitro; cited from earlier work.
For another assay, the system named is angiogenesis. The conditions noted are these: in vivo; cited from earlier work.

For `O=C[C@H](F)[C@@H](O)[C@H](O)[C@H](O)CO` [FDG, 2-fluoro-2-deoxyglucose], the FDG-PET finding result in the assay on nodal metastases was “two intensely metabolically active nodal metastases”.
Consider `N[C@@H](CCC(=O)N[C@@H](CSCC(=O)Nc1ccc([As](O)O)cc1)C(=O)NCC(=O)O)C(=O)O` [GSAO, 4-(N—(S-glutathionylacetyl)amino)phenylarsenous acid], for which, in the assay with proliferating cells, the “toxicity to proliferating cells” value is “toxic”. Moreover, in assay [1], the “toxicity to quiescent endothelial cells” value is given as “nontoxic”. Besides, in the assay with angiogenesis, the effect on angiogenesis entry is recorded as “inhibits angiogenesis in vivo”.
